Read-outs that look alike come from different tables or passages of the source.
Key:
Assay type in all cases: in vivo
corn [1] = test: Example 8, Procedure II: Herbicide No. 1 + butachlor (No. 9) with antidotes
Outline: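 Corn sown in silt loam and covered with soil pre-mixed with acetone-applied Herbicide No. 1 plus butachlor, with or without antidote. Given 0.6 cm overhead irrigation, then sub-irrigated in greenhouse; antidote effect is percent injury without minus with antidote.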

[2] = system: barnyardgrass (Echinochloa crusgalli); test: Example 10, Procedure II: Herbicide No. 1 + propachlor (No. 5) with antidotes; conditions: no antidote
Outline: (§1)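 Herbicide No. 1 plus propachlor and antidote, each in acetone, incorporated into silt loam cover soil over seeded corn/weed beds; untreated and herbicide-only controls included. Initial overhead irrigation equal to 0.6 cm rainfall, then greenhouse sub-irrigation. Response scored as percent injury; safening taken as injury difference without versus with antidote.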

[3] = system: velvetleaf (Abutilon theophrasti); test: as above; conditions: no antidote
Outline: as §1

[4] = system: barnyardgrass (Echinochloa crusgalli); test: Example 11, Procedure II: Herbicide No. 1 + metazachlor (No. 14) with antidotes; conditions: no antidote
[5] = system: velvetleaf (Abutilon theophrasti); test: as above; conditions: no antidote
[6] = system: Giant foxtail (Setaria fabergi); test: Example 24, Procedure II: Herbicide No. 1 + co-herbicides Nos. 4, 6, 7, 12 with Antidote Nos. 15 and 17-21; conditions: Setaria
Outline: (§2)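 Greenhouse pots, herbicide No. 1 plus co-herbicides and antidote in acetone incorporated into silt loam soil covering the corn seed bed, with giant foxtail and velvetleaf; initial overhead irrigation equal to 0.6 cm rainfall, then sub-irrigation. Antidote at 2.24 kg/ha; percent injury read 13 days after application, duplicate average.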

corn [7] = test: as above; conditions: Zea mays
Outline: as §2

[8] = system: velvetleaf (Abutilon theophrasti); test: as above; conditions: Abutilon theophrasti
Outline: as §2

[9] = Herbicide No.1 0.14 kg/ha alone
[10] = Herbicide No.1 0.56 kg/ha alone
[11] = Herbicide No.1 1.12 kg/ha alone

In the case of `COC(=O)c1c(Cl)nn(C)c1S(=O)(=O)NC(=O)Nc1nc(OC)cc(OC)n1` [Herbicide No. 1], the “% Injury Corn” value (corn [1]; Herbicide No.1 0.14 + No.9 2.24 kg/ha, no antidote) is reported as 25%, the “% Injury Corn” value (corn [1]; [9]) is reported as 10% and the “% Injury Corn” value (corn [1]; Herbicide No.1 0.56 + No.9 (butachlor) 2.24 kg/ha, no antidote) is reported as 65%. For the same molecule, the “% Injury Corn” value (corn [1]; [10]) was 60%, the “% Injury BYG” value [2, 9] was 75% and the “% Injury BYG” value [2, 10] was 80%. The “% Injury VL” value [3, 9] was 70%, the “% Injury VL” value [3, 10] was 75% and the “% Injury BYG” value [4, 10] was 75%. For the same molecule, the “% Injury BYG” value [4, 11] was 80%, the “% Injury VL” value [5, 10] was 75% and the “% Injury VL” value [5, 11] was 80%. For the same molecule, the inhibition at 1120 g/ha ([6]; read-out: % Inhibition GFT, Herb. No. 1 0.07 Kg/ha + Co-Herb. No. 4 1.12 Kg/ha, no antidote) was 70%, the inhibition at 140 g/ha ([6]; read-out: % Inhibition GFT, Herb. No. 1 0.07 Kg/ha + Co-Herb. No. 6 0.14 Kg/ha, no antidote) was 100% and the inhibition at 280 g/ha ([6]; read-out: % Inhibition GFT, Herb. No. 1 0.07 Kg/ha + Co-Herb. No. 7 0.28 Kg/ha, no antidote) was 100%. For the same molecule, the inhibition at 280 g/ha ([6]; read-out: % Inhibition GFT, Herb. No. 1 0.07 Kg/ha + Co-Herb. No. 12 0.28 Kg/ha, no antidote) was 99%, the inhibition at 1120 g/ha ([6]; read-out: % Inhibition GFT, Herb. No. 1 0.14 Kg/ha + Co-Herb. No. 4 1.12 Kg/ha, no antidote) was 80% and the inhibition at 140 g/ha ([6]; read-out: % Inhibition GFT, Herb. No. 1 0.14 Kg/ha + Co-Herb. No. 6 0.14 Kg/ha, no antidote) was 100%. For the same molecule, the inhibition at 280 g/ha ([6]; read-out: % Inhibition GFT, Herb. No. 1 0.14 Kg/ha + Co-Herb. No. 7 0.28 Kg/ha, no antidote) was 100%, the inhibition at 280 g/ha ([6]; read-out: % Inhibition GFT, Herb. No. 1 0.14 Kg/ha + Co-Herb. No. 12 0.28 Kg/ha, no antidote) was 99% and the inhibition at 1120 g/ha ([6]; read-out: % Inhibition GFT, Herb. No. 1 0.28 Kg/ha + Co-Herb. No. 4 1.12 Kg/ha, no antidote) was 85%. It also gave an inhibition at 140 g/ha ([6]; read-out: % Inhibition GFT, Herb. No. 1 0.28 Kg/ha + Co-Herb. No. 6 0.14 Kg/ha, no antidote) of 100%, an inhibition at 280 g/ha ([6]; read-out: % Inhibition GFT, Herb. No. 1 0.28 Kg/ha + Co-Herb. No. 7 0.28 Kg/ha, no antidote) of 100% and an inhibition at 280 g/ha ([6]; read-out: % Inhibition GFT, Herb. No. 1 0.28 Kg/ha + Co-Herb. No. 12 0.28 Kg/ha, no antidote) of 99%. The inhibition at 1120 g/ha ([6]; read-out: % Inhibition GFT, Herb. No. 1 0.56 Kg/ha + Co-Herb. No. 4 1.12 Kg/ha, no antidote) was 75%, the inhibition at 140 g/ha ([6]; read-out: % Inhibition GFT, Herb. No. 1 0.56 Kg/ha + Co-Herb. No. 6 0.14 Kg/ha, no antidote) was 100% and the inhibition at 280 g/ha ([6]; read-out: % Inhibition GFT, Herb. No. 1 0.56 Kg/ha + Co-Herb. No. 7 0.28 Kg/ha, no antidote) was 99%. For the same molecule, the inhibition at 280 g/ha ([6]; read-out: % Inhibition GFT, Herb. No. 1 0.56 Kg/ha + Co-Herb. No. 12 0.28 Kg/ha, no antidote) was 99%, the inhibition at 1120 g/ha (corn [7]; read-out: % Inhibition Corn, Herb. No. 1 0.07 Kg/ha + Co-Herb. No. 4 1.12 Kg/ha, no antidote) was 10% and the inhibition at 140 g/ha (corn [7]; read-out: % Inhibition Corn, Herb. No. 1 0.07 Kg/ha + Co-Herb. No. 6 0.14 Kg/ha, no antidote) was 5%. It also gave an inhibition at 280 g/ha (corn [7]; read-out: % Inhibition Corn, Herb. No. 1 0.07 Kg/ha + Co-Herb. No. 7 0.28 Kg/ha, no antidote) of 5%, an inhibition at 280 g/ha (corn [7]; read-out: % Inhibition Corn, Herb. No. 1 0.07 Kg/ha + Co-Herb. No. 12 0.28 Kg/ha, no antidote) of 5% and an inhibition at 1120 g/ha (corn [7]; read-out: % Inhibition Corn, Herb. No. 1 0.14 Kg/ha + Co-Herb. No. 4 1.12 Kg/ha, no antidote) of 20%. It also gave an inhibition at 140 g/ha (corn [7]; read-out: % Inhibition Corn, Herb. No. 1 0.14 Kg/ha + Co-Herb. No. 6 0.14 Kg/ha, no antidote) of 20%, an inhibition at 280 g/ha (corn [7]; read-out: % Inhibition Corn, Herb. No. 1 0.14 Kg/ha + Co-Herb. No. 7 0.28 Kg/ha, no antidote) of 15% and an inhibition at 280 g/ha (corn [7]; read-out: % Inhibition Corn, Herb. No. 1 0.14 Kg/ha + Co-Herb. No. 12 0.28 Kg/ha, no antidote) of 10%. It also gave an inhibition at 1120 g/ha (corn [7]; read-out: % Inhibition Corn, Herb. No. 1 0.28 Kg/ha + Co-Herb. No. 4 1.12 Kg/ha, no antidote) of 25%, an inhibition at 140 g/ha (corn [7]; read-out: % Inhibition Corn, Herb. No. 1 0.28 Kg/ha + Co-Herb. No. 6 0.14 Kg/ha, no antidote) of 25% and an inhibition at 280 g/ha (corn [7]; read-out: % Inhibition Corn, Herb. No. 1 0.28 Kg/ha + Co-Herb. No. 7 0.28 Kg/ha, no antidote) of 30%. For the same molecule, the inhibition at 280 g/ha (corn [7]; read-out: % Inhibition Corn, Herb. No. 1 0.28 Kg/ha + Co-Herb. No. 12 0.28 Kg/ha, no antidote) was 30%, the inhibition at 1120 g/ha (corn [7]; read-out: % Inhibition Corn, Herb. No. 1 0.56 Kg/ha + Co-Herb. No. 4 1.12 Kg/ha, no antidote) was 40% and the inhibition at 140 g/ha (corn [7]; read-out: % Inhibition Corn, Herb. No. 1 0.56 Kg/ha + Co-Herb. No. 6 0.14 Kg/ha, no antidote) was 40%. The inhibition at 280 g/ha (corn [7]; read-out: % Inhibition Corn, Herb. No. 1 0.56 Kg/ha + Co-Herb. No. 7 0.28 Kg/ha, no antidote) was 45%, the inhibition at 280 g/ha (corn [7]; read-out: % Inhibition Corn, Herb. No. 1 0.56 Kg/ha + Co-Herb. No. 12 0.28 Kg/ha, no antidote) was 45% and the inhibition at 1120 g/ha ([8]; read-out: % Inhibition VL, Herb. No. 1 0.07 Kg/ha + Co-Herb. No. 4 1.12 Kg/ha, no antidote) was 90%. The inhibition at 140 g/ha ([8]; read-out: % Inhibition VL, Herb. No. 1 0.07 Kg/ha + Co-Herb. No. 6 0.14 Kg/ha, no antidote) was 85%, the inhibition at 280 g/ha ([8]; read-out: % Inhibition VL, Herb. No. 1 0.07 Kg/ha + Co-Herb. No. 7 0.28 Kg/ha, no antidote) was 90% and the inhibition at 280 g/ha ([8]; read-out: % Inhibition VL, Herb. No. 1 0.07 Kg/ha + Co-Herb. No. 12 0.28 Kg/ha, no antidote) was 85%. The inhibition at 1120 g/ha ([8]; read-out: % Inhibition VL, Herb. No. 1 0.14 Kg/ha + Co-Herb. No. 4 1.12 Kg/ha, no antidote) was 90%, the inhibition at 140 g/ha ([8]; read-out: % Inhibition VL, Herb. No. 1 0.14 Kg/ha + Co-Herb. No. 6 0.14 Kg/ha, no antidote) was 95% and the inhibition at 280 g/ha ([8]; read-out: % Inhibition VL, Herb. No. 1 0.14 Kg/ha + Co-Herb. No. 7 0.28 Kg/ha, no antidote) was 90%. For the same molecule, the inhibition at 280 g/ha ([8]; read-out: % Inhibition VL, Herb. No. 1 0.14 Kg/ha + Co-Herb. No. 12 0.28 Kg/ha, no antidote) was 90%, the inhibition at 1120 g/ha ([8]; read-out: % Inhibition VL, Herb. No. 1 0.28 Kg/ha + Co-Herb. No. 4 1.12 Kg/ha, no antidote) was 95% and the inhibition at 140 g/ha ([8]; read-out: % Inhibition VL, Herb. No. 1 0.28 Kg/ha + Co-Herb. No. 6 0.14 Kg/ha, no antidote) was 95%. For the same molecule, the inhibition at 280 g/ha ([8]; read-out: % Inhibition VL, Herb. No. 1 0.28 Kg/ha + Co-Herb. No. 7 0.28 Kg/ha, no antidote) was 95%, the inhibition at 280 g/ha ([8]; read-out: % Inhibition VL, Herb. No. 1 0.28 Kg/ha + Co-Herb. No. 12 0.28 Kg/ha, no antidote) was 95% and the inhibition at 1120 g/ha ([8]; read-out: % Inhibition VL, Herb. No. 1 0.56 Kg/ha + Co-Herb. No. 4 1.12 Kg/ha, no antidote) was 90%. The inhibition at 140 g/ha ([8]; read-out: % Inhibition VL, Herb. No. 1 0.56 Kg/ha + Co-Herb. No. 6 0.14 Kg/ha, no antidote) was 95%, the inhibition at 280 g/ha ([8]; read-out: % Inhibition VL, Herb. No. 1 0.56 Kg/ha + Co-Herb. No. 7 0.28 Kg/ha, no antidote) was 95% and the inhibition at 280 g/ha ([8]; read-out: % Inhibition VL, Herb. No. 1 0.56 Kg/ha + Co-Herb. No. 12 0.28 Kg/ha, no antidote) was 90%.

From patent EP0603240B1, “SAFENING HERBICIDAL PYRAZOLYLSULFONYLUREAS” (priority 1991, dated 1993)
